Broadly, the IC50 is the concentration needed to halve the response being measured. Lower therefore signals greater potency in that assay.

Data on 99 compounds can be found in ChEMBL document CHEMBL1150213, “Protein-tyrosine kinase inhibition: mechanism-based discovery of antitumor agents” (J Nat Prod, 1992).

T1 sequence (P00533 whole entry): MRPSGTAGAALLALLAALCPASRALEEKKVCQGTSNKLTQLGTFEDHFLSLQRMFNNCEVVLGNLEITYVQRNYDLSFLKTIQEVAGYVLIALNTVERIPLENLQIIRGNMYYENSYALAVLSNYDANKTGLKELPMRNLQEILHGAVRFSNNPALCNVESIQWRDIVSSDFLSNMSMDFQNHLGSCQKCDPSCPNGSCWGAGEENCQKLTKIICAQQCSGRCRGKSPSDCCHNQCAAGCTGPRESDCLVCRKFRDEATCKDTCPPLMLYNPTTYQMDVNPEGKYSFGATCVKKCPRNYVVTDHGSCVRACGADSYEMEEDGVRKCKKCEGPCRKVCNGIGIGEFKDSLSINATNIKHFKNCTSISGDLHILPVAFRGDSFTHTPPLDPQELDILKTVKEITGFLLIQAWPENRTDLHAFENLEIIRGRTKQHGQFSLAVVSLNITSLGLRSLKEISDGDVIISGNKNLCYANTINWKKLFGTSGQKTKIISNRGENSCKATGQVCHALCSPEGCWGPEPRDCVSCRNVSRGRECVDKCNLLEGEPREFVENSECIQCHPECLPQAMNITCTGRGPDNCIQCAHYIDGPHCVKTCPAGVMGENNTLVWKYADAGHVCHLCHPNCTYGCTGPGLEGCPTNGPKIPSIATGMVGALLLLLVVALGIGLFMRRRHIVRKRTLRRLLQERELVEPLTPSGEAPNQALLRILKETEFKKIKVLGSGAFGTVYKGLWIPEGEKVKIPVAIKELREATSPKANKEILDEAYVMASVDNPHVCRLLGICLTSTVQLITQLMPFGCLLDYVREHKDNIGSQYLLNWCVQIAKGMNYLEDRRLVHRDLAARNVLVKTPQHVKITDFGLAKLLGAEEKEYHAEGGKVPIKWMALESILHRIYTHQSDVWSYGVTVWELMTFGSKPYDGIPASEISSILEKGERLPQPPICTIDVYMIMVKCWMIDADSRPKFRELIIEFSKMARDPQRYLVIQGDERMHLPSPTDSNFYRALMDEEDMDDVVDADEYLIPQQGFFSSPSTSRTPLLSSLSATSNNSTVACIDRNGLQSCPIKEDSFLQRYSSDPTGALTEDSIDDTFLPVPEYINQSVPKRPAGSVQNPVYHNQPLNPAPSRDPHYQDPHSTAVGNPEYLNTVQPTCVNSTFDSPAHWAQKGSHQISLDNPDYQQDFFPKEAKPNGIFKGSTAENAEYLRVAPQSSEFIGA
Tyrosine-protein kinase Lck, sequence (P06239 whole entry): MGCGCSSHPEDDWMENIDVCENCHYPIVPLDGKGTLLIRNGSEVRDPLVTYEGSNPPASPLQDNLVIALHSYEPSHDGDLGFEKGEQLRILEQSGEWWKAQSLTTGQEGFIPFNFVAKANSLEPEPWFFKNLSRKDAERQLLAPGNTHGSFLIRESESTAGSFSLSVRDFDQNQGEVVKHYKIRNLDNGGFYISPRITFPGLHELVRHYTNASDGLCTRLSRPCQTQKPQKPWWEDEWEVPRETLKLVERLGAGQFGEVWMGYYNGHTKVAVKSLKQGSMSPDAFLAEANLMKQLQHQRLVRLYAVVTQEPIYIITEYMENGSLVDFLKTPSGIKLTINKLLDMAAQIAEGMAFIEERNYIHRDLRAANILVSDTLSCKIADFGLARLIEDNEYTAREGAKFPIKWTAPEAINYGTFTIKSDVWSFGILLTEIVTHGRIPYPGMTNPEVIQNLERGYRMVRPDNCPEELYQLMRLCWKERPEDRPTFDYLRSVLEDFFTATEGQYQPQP

One test has as its target T1, Epidermal growth factor receptor (Homo sapiens, UniProt P00533).
Description: Inhibition of EGFR in human A431 cells
In turn, `O=P(O)(O)C(O)c1ccc2ccccc2c1` (stereo not given) showed an IC50 of 200 µM.
`N#C/C(=C\c1ccc(O)c(O)c1)C(=O)NCCc1ccccc1` gave an IC50 of 0.9 µM. Against the preceding compound, the IC50 is about 220-fold lower.
As for `COc1cc(/C=C/[N+](=O)[O-])ccc1O`, the IC50 turned out to be 8 µM.
Consider `N#CC(C#N)=C(N)/C(C#N)=C/c1ccc(O)c(O)c1`, for which the IC50 is 3 µM.
As to `N#CC(C#N)=C(O)c1cc(O)c(O)c(O)c1`, the IC50 was determined as 10 µM.
Compound `N#CC(C#N)=C(C#N)c1cccc(O)c1` returned an IC50 of 400 µM.
The compound `N#CC(C#N)=C(C#N)c1ccc(O)cc1` returned an IC50 of 600 µM.
Turning to `N#CC(C#N)=C(C#N)c1cc(O)cc(O)c1`, the IC50 was 10 µM. This IC50 lies about 60-fold lower than the previous one.
On to `N#CC(C#N)=C(C#N)c1ccc(O)c(O)c1`, for which the half-inhibitory concentration (IC50) stood at 10 µM. In other words, the double-digit micromolar range.
In turn, `O=C(O)c1cc(N(Cc2cc(O)ccc2O)Cc2cc(O)ccc2O)ccc1O` showed an IC50 of 0.0252 µM.
As to `O=C(O)c1ccc(O)c(N(Cc2ccccc2O)Cc2cc(O)ccc2O)c1`, the IC50 was 0.524 µM.
For the compound `COc1cc(C(C#N)=C(C#N)C#N)cc(O)c1O`, half-maximal inhibition (IC50) required 6 µM.
Compound `COc1cc(C(C#N)=C(C#N)C#N)cc(OC)c1O` showed an IC50 of 900 µM.
Same read-out and setting: for `N#CC(C#N)=C(C#N)c1ccc(C=O)cc1` the value was 600 µM.
Consider `N#C/C(=C/c1ccc(O)c(O)c1)C(=O)NCCCCc1ccccc1`, for which the IC50 turned out to be 0.1 µM.
For the compound `N#C/C(=C/c1ccc(O)c(O)c1)C(=O)NC1CCCCC1`, inhibition was half-maximal at 2 µM (IC50). Compared with the last compound, the IC50 is about 20-fold higher.
`N#CC(C#N)=C(C#N)c1cc(O)c(O)c(O)c1` gave an IC50 of 3 µM.
Turning to `N#C/C(=C\c1cc(O)ccc1O)C(=O)O`, the midpoint of inhibition, the IC50, lay at 20 µM. Against the preceding compound, the IC50 is about 6.7-fold higher.
For `N#C/C(=C/c1ccc(O)c(O)c1)C(=O)Nc1ccccc1Cl`, half-maximal inhibition (IC50) was put at 10 µM.
Take `Cc1ccc(C(=O)/C(C#N)=C/c2ccc(O)c(O)c2)cc1`: the IC50 amounted to 0.9 µM.
Turning to `N#C/C(=C\c1ccc(O)c(O)c1)C(=O)c1ccc(F)cc1`, the IC50 came to 0.6 µM.
In turn, `N#C/C(=C\c1ccc(O)c(O)c1)C(=O)c1ccccc1` yielded an IC50 of 1 µM.
The compound `N#C/C(=C\c1ccc(O)c(O)c1)C(=O)c1ccc(O)c(O)c1` returned an IC50 of 0.4 µM. Against the preceding compound, the IC50 is about 2.5-fold lower.
`N#C/C(=C\c1ccc(O)c(O)c1)C(=O)c1ccc([N+](=O)[O-])cc1` came in with an IC50 of 2 µM.
With `N#C/C(=C\c1ccc(O)c(O)c1)C(=O)c1ccccc1Cl`, the IC50 is 2 µM.
Same read-out and setting: for `N#C/C(=C\c1ccc(O)c(O)c1)C(=O)O` the value was 30 µM; for `N#CC(C#N)=C(N)/C(C#N)=C/c1ccc(O)cc1`, 0.1 µM; for `C/C(=C\c1ccc(O)c(O)c1)[N+](=O)[O-]`, 9 µM.
As to `O=[N+]([O-])/C=C/c1ccc(O)c(O)c1`, the IC50 was determined as 9 µM.
For the compound `N#CC(C#N)=C(O)c1ccc(O)cc1`, half-maximal inhibition (IC50) was put at 500 µM.
Compound `COc1ccc(-c2cc(=O)c3c(O)cc(O)cc3o2)cc1` [ACACETIN] gave an IC50 of 141 µM.
On to `O=c1cc(-c2ccc(O)cc2)oc2cc(O)cc(O)c12` [APIGENIN], for which the IC50 was 111 µM.
`COc1ccc(-c2coc3cc(O)cc(O)c3c2=O)cc1` [BIOCHANIN] had a 50% inhibitory concentration (IC50) of 106 µM.
`O=C(O)/C=C/c1ccc(O)c(O)c1` [CAFFEIC ACID] registered an IC50 of 1000 µM.
In the case of `O=c1c(-c2ccc(O)cc2)coc2cc(O)ccc12` [DAIDZEIN], the IC50 is more than 393 µM.
With `O=c1cc(-c2ccccc2)oc2ccccc12` [FLAVONE], the IC50 was 225 µM.
Still for that read-out and setting: for `O=c1c(-c2ccc(O)cc2)coc2cc(O[C@@H]3O[C@H](CO)[C@@H](O)[C@H](O)[C@H]3O)cc(O)c12` [GENISTIN] the value was more than 231 µM.
`O=c1c(O)c(-c2ccc(O)cc2)oc2cc(O)cc(O)c12` [KAEMPFEROL]: the IC50 is 10.5 µM.
On the same count and under the same terms, in the case of `O=C(O)c1cc(N(Cc2ccccc2O)Cc2cc(O)ccc2O)ccc1O` [LAVENDUSTIN A] it was 0.0105 µM.
On to `O=C(O)c1cc(N(Cc2ccccc2O)Cc2ccccc2O)ccc1O` [LAVENDUSTIN B], for which the IC50 is 1.37 µM.
`O=C(O)c1ccc(O)cc1` [PARABEN] gave an IC50 of 72.4 µM.
`COc1cc(O)c2c(=O)c(-c3ccc(O)cc3)coc2c1` [PRUNETIN] gave an IC50 of 14.1 µM.
The compound `COc1c(O)cc(O)c2c(=O)c(-c3ccc(O)cc3)coc12` [PSI-TECTORIGENIN] gave an IC50 of 0.333 µM.
`N#C/C(=C\c1ccc(O)cc1)C(=O)O` [alpha-CYANO-4-HYDROXYCINNAMIC ACID] registered an IC50 of 200 µM.

A further test concerns the target Tyrosine-protein kinase Lck (Homo sapiens, UniProt P06239).
As for `Nc1ccc(-c2cc(=O)c3ccc(O)cc3o2)cc1`, it took 100 µM to reach half-maximal inhibition (IC50).
`Nc1ccc(-c2cc(=O)c3cc(O)ccc3o2)cc1`: the IC50 was found to be 1 µM.
For the compound `O=c1cc(-c2cccc(O)c2)oc2c(O)c(O)ccc12`, half-maximal inhibition (IC50) required 185 µM.
Still for that read-out and setting: in the case of `O=c1cc(-c2cccc(O)c2)oc2cc(O)ccc12` it was 39.3 µM.
With `O=c1cc(-c2ccc(O)cc2)oc2cc(O)ccc12`, it took 787 µM to reach half-maximal inhibition (IC50).
Compound `COc1cc(-c2cc(=O)c3ccccc3o2)cc(OC)c1O` showed an IC50 of 26.8 µM.
`COc1ccc(/C=N/Nc2ccccc2)cc1OC` displayed an IC50 of 70 µM.
The same measure, in the same setting: in the case of `COc1cc(-c2cc(=O)c3ccc(O)c(O)c3o2)cc(OC)c1OC` it was 290 µM.
Take `COc1cc(-c2cc(=O)c3ccc(OC)c(OC)c3o2)cc(OC)c1OC`: the IC50 is more than 2150 µM.
Regarding `CC(=O)Oc1ccc2c(c1)C(=O)c1ccccc1C2=O`, the concentration for half-maximal inhibition (IC50) was more than 3000 µM.
Compound `Nc1ccc(-c2cc(=O)c3c(O)c(O)ccc3o2)cc1` showed an IC50 of 7 µM.
`CC(C)(C)[Si](C)(C)Oc1ccc(-c2cc(=O)c3cc(O)ccc3o2)cc1`: the IC50 was 109 µM.
Take `CC(C)(C)[Si](C)(C)Oc1ccc(-c2cc(=O)c3ccc(O)cc3o2)cc1`: 109 µM corresponded to half-maximal inhibition (IC50).
`O=c1cc(-c2ccc(O)cc2)oc2cccc(O)c12` showed an IC50 of 15.7 µM.
`O=c1cc(-c2ccc(O)cc2)oc2ccc(O)cc12`: the IC50 was 11.8 µM.
On the same count and under the same terms, for `O=c1cc(-c2ccc(OCc3ccccc3)cc2)oc2cccc(O)c12` the value was more than 2320 µM; for `O=c1cc(-c2ccc(OCc3ccccc3)cc2)oc2cc(O)ccc12`, 2030 µM.
The compound `COc1cc(-c2cc(=O)c3ccc(O)cc3o2)cc(OC)c1OC` showed an IC50 of more than 2440 µM.
On to `COc1cc(-c2cc(=O)c3ccc(O)cc3o2)cc(OC)c1O[Si](C)(C)C(C)(C)C`, for which it took 163 µM to reach half-maximal inhibition (IC50).
In turn, `COc1cc(-c2cc(=O)c3cc(O)ccc3o2)cc(OC)c1O` gave an IC50 of 127 µM.
Same read-out and setting: for `COc1cc(-c2cc(=O)c3ccc(O)cc3o2)cc(OC)c1O` the value was 1270 µM; for `COc1ccc2oc(-c3cc(OC)c(OC)c(OC)c3)cc(=O)c2c1`, more than 2340 µM.
The compound `COc1cc(-c2cc(=O)c3ccc(OC(C)=O)cc3o2)cc(OC)c1O` had an IC50 of more than 2250 µM.
`COc1cc(-c2cc(=O)c3ccc(OC(C)=O)c(OC(C)=O)c3o2)cc(OC)c1O[Si](C)(C)C(C)(C)C` displayed an IC50 of more than 1510 µM.
As to `COc1cc(-c2cc(=O)c3cc(O)ccc3o2)cc(OC)c1O[Si](C)(C)C(C)(C)C`, the IC50 was 467 µM.
The compound `COc1cc(-c2cc(=O)c3ccc(O)c(O)c3o2)cc(OC)c1O` showed an IC50 of 121 µM.
`O=c1cc(-c2cccc(O)c2)oc2ccc(O)cc12`: the IC50 is 157 µM.
Turning to `COc1cc(-c2cc(=O)c3ccc(O)c(O)c3o2)cc(OC)c1O[Si](C)(C)C(C)(C)C`, the IC50 is more than 1800 µM.
For `O=c1cc(-c2cccc(O)c2)oc2cccc(O)c12`, the IC50 was 315 µM.
`COc1cc(-c2cc(=O)c3cc(O)ccc3o2)cc(OC)c1OC` gave an IC50 of 60.9 µM.
Consider `COc1cc(-c2cc(=O)c3ccc(OC(C)=O)cc3o2)cc(OC)c1O[Si](C)(C)C(C)(C)C`, for which the IC50 was more than 1700 µM.
`Cc1cc(O)c2c(c1)C(=O)c1cc(O[C@@H]3O[C@H](CO)[C@@H](O)[C@H](O)[C@H]3O)cc(O)c1C2=O`: the IC50 was more than 1850 µM.
`COc1ccc2c(=O)cc(-c3cc(OC)c(OC)c(OC)c3)oc2c1` came in with an IC50 of more than 2340 µM.
Compound `COc1ccc(/C=C/c2cccnc2)cc1OC` yielded an IC50 of 200 µM.
The compound `O=c1c(O)c(-c2cc(O)cc(O)c2)oc2cc(O)cc(O)c12` showed an IC50 of 99.3 µM.
Regarding `O=C1c2ccccc2C(=O)c2c(O)cccc21` [1-HYDROXYANTHRAQUINONE], the IC50 is more than 3570 µM.
As to `O=C1c2ccccc2C(=O)c2cc(O)ccc21` [2-HYDROXYANTHRAQUINONE], half-maximal inhibition (IC50) was put at 89.2 µM.
Turning to `O=c1cc(-c2ccccc2)oc2c(O)c(O)ccc12` [7,8-DIHYDROXYFLAVONE], the IC50 was 315 µM.
In turn, `O=c1cc(-c2ccccc2)oc2cc(O)ccc12` [7-HYDROXYFLAVONE] showed an IC50 of 336 µM.
Regarding `O=c1cc(-c2ccc(O)cc2)oc2cc(O)cc(O)c12` [APIGENIN], the IC50 was 14.8 µM.
The compound `O=c1cc(-c2ccccc2)oc2cc(O)cc(O)c12` [CHRYSIN] had an IC50 of 19.7 µM.
In turn, `O=c1c(O)c(-c2ccccc2)oc2cc(O)cc(O)c12` [GALANGIN] gave an IC50 of 296 µM.
In turn, `COc1cc(O)c2c(=O)cc(-c3ccc(O)cc3)oc2c1` [GENKWANIN] gave an IC50 of 281 µM.
Still for that read-out and setting: for `O=c1cc(-c2ccc(O)c(O)c2)oc2cc(O)cc(O)c12` [LUTEOLIN] the value was 34.9 µM.
Compound `COc1cc(O)c2c(c1)C(=O)c1cc(C)cc(O)c1C2=O` [PHYSCION] yielded an IC50 of more than 2810 µM.
`O=c1c(O)c(-c2ccc(O)c(O)c2)oc2cc(O)cc(O)c12` [QUERCETIN] gave an IC50 of 132 µM.
As for `COc1cc(-c2oc3cc(O)cc(O)c3c(=O)c2O)cc(OC)c1O` [SYRINGETIN], the IC50 was 57.8 µM.

In a further test the target is T1, Epidermal growth factor receptor. The source holds these as a separate data set.
Regarding `CCOC(=O)CSCc1oc2cc(O)cc(O)c2c(=O)c1-c1ccc(O)cc1`, the IC50 was 9.94 µM.
Compound `O=c1c(-c2ccc(O)cc2)c(CN2CCCCC2)oc2cc(O)cc(O)c12` showed an IC50 of 27.2 µM.
The compound `CCOC(=O)c1oc2cc(O)cc(O)c2c(=O)c1-c1ccc(O)cc1` gave an IC50 of 5.84 µM.
Regarding `CC(C)OC(=O)c1oc2cc(O)cc(O)c2c(=O)c1-c1ccc(O)cc1`, it took 28.1 µM to reach half-maximal inhibition (IC50). This IC50 is about 4.8-fold higher than that of the compound before.
On the same count and under the same terms, for `CSCc1oc2cc(O)cc(O)c2c(=O)c1-c1ccc(O)cc1` the value was 15.1 µM; for `NC(=O)c1oc2cc(O)cc(O)c2c(=O)c1-c1ccc(O)cc1`, 31.9 µM.
`O=c1c(-c2ccc(O)cc2)c(CSC2=NCCS2)oc2cc(O)cc(O)c12` gave a half-maximal inhibitory concentration (IC50) of 12.5 µM. This IC50 lies about 2.6-fold lower than the previous one.
The compound `O=c1c(-c2ccc(O)cc2)c(CNC2=NCCS2)oc2cc(O)cc(O)c12` had an IC50 of 52 µM.
Compound `COC(=O)c1oc2cc(O)cc(O)c2c(=O)c1-c1ccc(O)cc1` showed an IC50 of 6.09 µM. This IC50 lies about 8.5-fold lower than the previous one.
